Experimental data: patent US8710233B2 (Gruenenthal GmbH, priority 2005, dated 2014)
Read-outs that look alike come from different tables or passages of the source.

What was measured:
Assay type in all cases: cell-based
[1] = target: VR1/TRPV1 receptor (Homo sapiens, UniProt Q8NER1); test: IC50 (human) after pH stimulus; conditions: for inhibition at 1 µM: ne = no effect; for inhibition at 1 µM / inhibition at 10 µM / inhibition at 0.1 µM / inhibition at 25 µM: read-out: inhibition in percent, IC50 (human) after pH stimulus
[2] = target: T1, vanilloid receptor 1 (VR1/TRPV1) of the rat species (Rattus norvegicus, UniProt O35433); test: FLIPR Ca2+ influx assay on rat dorsal root ganglia cells (pharmacological method I)
T1 construct: The spinal column is removed from decapitated rats; from tissue; host or cells: primary cells dissociated from rat dorsal root ganglia
Procedure, shortened: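 Primary rat dorsal root ganglion cells loaded with 2 μM Fluo-4, Ca2+ influx read on FLIPR as peak fluorescence. Triplicates, at least 3 independent experiments.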

[3] = target: T2, vanilloid receptor (VR1) (Homo sapiens, UniProt Q8NER1); test: FLIPR Ca2+ influx assay on CHO K1 cells transfected with the VR1 gene (pharmacological method II)
T2 construct: expressed in transfected cells; host or cells: CHO K1 cells (ECACC), stably transfected

[4] = table 4, capsaicin, read-out: Ki (rat) Cap.
[5] = table 4, capsaicin, read-out: Ki (human) Cap.
[6] = Ki (rat) Cap., table 4, capsaicin
[7] = Table 2, displacement of capsaicin (100 nM), Cheng-Prusoff, read-out: Ki (rat)
[8] = Table 2, displacement of capsaicin (100 nM), Cheng-Prusoff, read-out: Ki (human)

T1 sequence (O35433 whole entry): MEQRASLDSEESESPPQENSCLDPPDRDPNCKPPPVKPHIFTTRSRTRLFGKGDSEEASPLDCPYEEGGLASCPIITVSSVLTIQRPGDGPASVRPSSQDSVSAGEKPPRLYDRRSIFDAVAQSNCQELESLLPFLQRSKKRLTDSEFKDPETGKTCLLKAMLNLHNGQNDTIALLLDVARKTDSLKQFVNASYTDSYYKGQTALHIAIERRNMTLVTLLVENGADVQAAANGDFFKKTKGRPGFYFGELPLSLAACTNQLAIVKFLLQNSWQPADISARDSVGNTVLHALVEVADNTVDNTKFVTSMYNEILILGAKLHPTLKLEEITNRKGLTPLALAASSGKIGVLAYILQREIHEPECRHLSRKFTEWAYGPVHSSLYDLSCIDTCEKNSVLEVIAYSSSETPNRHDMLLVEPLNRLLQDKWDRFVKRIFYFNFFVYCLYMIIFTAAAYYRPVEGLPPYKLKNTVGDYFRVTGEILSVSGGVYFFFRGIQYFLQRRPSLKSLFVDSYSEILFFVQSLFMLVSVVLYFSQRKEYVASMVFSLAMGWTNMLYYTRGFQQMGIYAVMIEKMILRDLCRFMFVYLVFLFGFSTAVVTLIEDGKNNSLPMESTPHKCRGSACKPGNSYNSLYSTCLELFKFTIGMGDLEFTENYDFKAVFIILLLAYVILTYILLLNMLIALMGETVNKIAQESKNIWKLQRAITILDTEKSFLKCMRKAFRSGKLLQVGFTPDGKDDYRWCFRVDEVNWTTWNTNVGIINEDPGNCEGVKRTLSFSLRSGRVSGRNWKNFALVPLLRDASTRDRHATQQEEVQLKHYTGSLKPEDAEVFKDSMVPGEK
Chain of VR1/TRPV1 receptor (Q8NER1 whole entry): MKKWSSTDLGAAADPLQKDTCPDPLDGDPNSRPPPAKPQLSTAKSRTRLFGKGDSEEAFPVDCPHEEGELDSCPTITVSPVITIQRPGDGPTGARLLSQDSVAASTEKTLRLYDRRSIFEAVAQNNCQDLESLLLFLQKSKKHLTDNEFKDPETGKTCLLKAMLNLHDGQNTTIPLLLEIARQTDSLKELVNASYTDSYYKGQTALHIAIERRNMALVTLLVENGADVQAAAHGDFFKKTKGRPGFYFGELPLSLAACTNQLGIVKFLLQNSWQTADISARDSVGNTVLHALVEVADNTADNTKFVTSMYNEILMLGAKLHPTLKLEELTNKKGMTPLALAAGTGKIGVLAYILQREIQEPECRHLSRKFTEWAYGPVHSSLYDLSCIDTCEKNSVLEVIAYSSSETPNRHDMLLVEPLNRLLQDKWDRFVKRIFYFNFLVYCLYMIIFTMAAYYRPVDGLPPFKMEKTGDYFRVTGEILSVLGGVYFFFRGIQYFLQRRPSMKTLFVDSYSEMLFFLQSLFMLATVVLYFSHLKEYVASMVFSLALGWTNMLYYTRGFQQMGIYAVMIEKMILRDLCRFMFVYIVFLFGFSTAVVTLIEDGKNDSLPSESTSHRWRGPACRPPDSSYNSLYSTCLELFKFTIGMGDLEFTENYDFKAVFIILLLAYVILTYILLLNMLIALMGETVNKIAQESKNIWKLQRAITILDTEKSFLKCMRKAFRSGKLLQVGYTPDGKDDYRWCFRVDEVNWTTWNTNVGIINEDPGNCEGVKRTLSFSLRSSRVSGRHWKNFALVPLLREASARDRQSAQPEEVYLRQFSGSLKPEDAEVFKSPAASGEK
T2 sequence (Q8NER1 whole entry): as above

| Ki [2, 4] | Ki [3, 5] | IC50 ([1]; table 4) | SMILES | also measured |
| --- | --- | --- | --- | --- |
| – | – | – | CC(C(=O)NCc1ccc(C(F)(F)F)nc1N1CCN(c2ccncc2)CC1)c1ccc(NS(C)(=O)=O)c(F)c1 (stereo not shown) [Example 176, 2-(3-fluoro-4-methylsulfonamido-phenyl)-N-[2-(4-pyridin-4-yl-piperazin-1-yl)-6-trifluoromethyl-pyridin-3-ylmethyl]-propionamide] | inhibition at 1 µM [1]: 13%; inhibition at 10 µM [1]: 43%; inhibition at 10 µM ([2]; @ 10 μM, read-out: inhibition in percent, Ki (rat) Cap.): 60%; inhibition at 10 µM ([3]; CHO-K1, @ 10 μM, read-out: inhibition in percent, Ki (human) Cap.): 63% |
| 7.4 nM | 4.2 nM | – | CC(C(=O)NCc1ccc(C(F)(F)F)nc1N1CCCC1)c1ccc(NS(C)(=O)=O)c(Cl)c1 (stereo not shown) [Example 102, 2-(3-chloro-4-methylsulfonamido-phenyl)-N-(2-pyrrolidin-1-yl-6 trifluoromethyl-pyridin-3-ylmethyl)-propionamide] | inhibition at 10 µM [1]: 18% |
| 1.2 nM | 2.5 nM | 25 nM | CC(C(=O)NCc1ccc(C(F)(F)F)nc1OCc1ccc(F)cc1)c1ccc(NS(C)(=O)=O)c(F)c1 (stereo not shown) [Example 175, N-[2-(4-fluoro-benzyloxy)-6-trifluoromethyl-pyridin-3-ylmethyl]-2-(3-fluoro-4-methylsulfonamido-phenyl)-propionamide] | – |
| 5.3 nM | 1.2 nM | – | CC(C(=O)NCc1ccc(C(C)(C)C)nc1N1CCCC1)c1ccc(NS(C)(=O)=O)c(F)c1 (stereo not shown) [Example 240, N-(6-tert-butyl-2-pyrrolidin-1-yl-pyridin-3-ylmethyl)-2-(3-fluoro-4-methansulfonylamino-phenyl)-propionamide] | inhibition at 0.1 µM [1]: 12%; inhibition at 1 µM [1]: 43% |
| – | 2.9 nM | 43.1 nM | CC1CCC(Oc2nc(C(F)(F)F)ccc2CNC(=O)C(C)c2ccc(NS(C)(=O)=O)c(F)c2)CC1 (stereo not shown) [Example 157, 2-(3-fluoro-4-methylsulfonamido-phenyl)-N-[2-(4-methyl-cyclohexyloxy)-6-trifluoromethyl-pyridin-3-ylmethyl]-propionamide] | Ki [2, 6]: 1.3 nM |
| 335 nM | 146 nM | – | CC(C(=O)NCc1ccc(C(F)(F)F)nc1N1CCN(C)CC1)c1ccc(NS(C)(=O)=O)c(F)c1 (stereo not shown) [Example 134, 2-(3-fluoro-4-methylsulfonamido-phenyl)-N-[2-(4-methyl-piperazin-1-yl)-6-trifluoromethyl-pyridin-3-ylmethyl]-propionamide] | inhibition at 25 µM [1]: 69% |
| – | 2.7 nM | – | CC(C(=O)NCc1ccc(C(F)(F)F)nc1OC1Cc2ccccc2C1)c1ccc(NS(C)(=O)=O)c(F)c1 (stereo not shown) [Example 245, 2-(3-fluoro-4-methylsulfonamido-phenyl)-N-[2-(indan-2-yloxy)-6-trifluoromethyl-pyridin-3-ylmethyl]-propionamide] | inhibition at 0.1 µM [1]: 21%; inhibition at 1 µM [1]: 74%; Ki [2, 6]: 1.7 nM |
| 0.8 nM | 1.8 nM | 145 nM | CC(C(=O)NCc1ccc(C(C)(C)C)cc1OC1CCCC1)c1ccc(NS(C)(=O)=O)c(F)c1 (stereo not shown) [Example 155, N-(4-tert-butyl-2-cyclopentyloxy-benzyl)-2-(3-fluoro-4-methylsulfonamido-phenyl)-propionamide] | – |
| 2.4 nM | 3.4 nM | 39.2 nM | CC(C(=O)NCc1ccc(C(F)(F)F)nc1N1CCN(c2ccc(C(F)(F)F)cc2)CC1)c1ccc(NS(C)(=O)=O)c(F)c1 (stereo not shown) [Example 222, 2-(3-fluoro-4-methylsulfonamido-phenyl)-N-{6-trifluoromethyl-2-[4-(4-trifluoromethyl-phenyl)-piperazin-1-yl]-pyridin-3-ylmethyl}propionamide] | – |
| – | 3.2 nM | 66.1 nM | CC(C(=O)NCc1ccc(C(F)(F)F)nc1OCc1ccc(C(F)(F)F)cc1)c1ccc(NS(C)(=O)=O)c(F)c1 (stereo not shown) [Example 206, 2-(3-fluoro-4-methylsulfonamido-phenyl)-N-[6-trifluoromethyl-2-(4-trifluoromethyl-benzyloxy)-pyridin-3-ylmethyl]-propionamide] | Ki [2, 6]: 0.7 nM |
| – | – | – | CC(C(=O)NCc1ccc(C(F)(F)F)cc1Cl)c1ccc(NS(C)(=O)=O)c(F)c1 (stereo not shown) [Example 75, N-(2-chloro-4-(trifluoromethyl)benzyl)-2-(3-fluoro-4-(methylsulfonamido)phenyl)propanamide] | IC50 ([1]; Table 2): 1210 nM; Ki [2, 7]: 12.9 nM; Ki [3, 8]: 4 nM |
| 2.4 nM | 3.3 nM | 38.3 nM | Cc1ccc(N2CCN(c3nc(C(F)(F)F)ccc3CNC(=O)C(C)c3ccc(NS(C)(=O)=O)c(F)c3)CC2)cc1 (stereo not shown) [Example 219, 2-(3-fluoro-4-methylsulfonamido-phenyl)-N-[2-(4-p-tolyl-piperazin-1-yl)-6-trifluoromethyl-pyridin-3-ylmethyl]-propionamide] | – |
| 3.6 nM | 4.2 nM | – | CC(C(=O)NCc1ccc(C(F)(F)F)nc1N1CCN(c2ncccc2C(F)(F)F)CC1)c1ccc(NS(C)(=O)=O)c(F)c1 (stereo not shown) [Example 212, 2-(3-fluoro-4-methylsulfonamido-phenyl)-N-{6-trifluoromethyl-2-[4-(3-trifluoromethyl-pyridin-2-yl)-piperazin-1-yl]-pyridin-3-ylmethyl}-propionamide] | inhibition at 0.1 µM [1]: 11%; inhibition at 1 µM [1]: 33% |
| 25.3 nM | 21.6 nM | – | CC(C(=O)NCc1ccc(C(F)(F)F)nc1N1CCN(C2CCCCC2)CC1)c1ccc(NS(C)(=O)=O)c(F)c1 (stereo not shown) [Example 260, N-[2-(4-cyclohexyl-piperazin-1-yl)-6-trifluoromethyl-pyridin-3-ylmethyl]-2-(3-fluoro-4-methylsulfonamido-phenyl)-propionamide] | inhibition at 1 µM [1]: 51%; inhibition at 10 µM [1]: 66% |
| 0.9 nM | 3.9 nM | – | CC(C(=O)NCc1ccc(C(F)(F)F)cc1N1CCN(c2ccc(C(F)(F)F)cc2)CC1)c1ccc(NS(C)(=O)=O)c(F)c1 (stereo not shown) [Example 248, 2-(3-fluoro-4-methylsulfonamido-phenyl)-N-{4-trifluoromethyl-2-[4-(4-trifluoromethyl-phenyl)-piperazin-1-yl]-benzyl}-propionamide] | inhibition at 10 µM [1]: 66%; inhibition at 25 µM [1]: 74% |
| 28.1 nM | 68.7 nM | 2360 nM | CC(C(=O)NCc1ccc(C(F)(F)F)cc1F)c1ccc(NS(C)(=O)=O)c(F)c1 (stereo not shown) [Example 114, 2-(3-fluoro-4-methylsulfonamido-phenyl)-N-(2-fluoro-4-trifluoromethyl-benzyl)-propionamide] | – |
| 8.7 nM | 3.8 nM | 281 nM | CC(C(=O)NCc1ccc(C(F)(F)F)nc1N1CCC2(CC1)CC(C(C)(C)C)=NO2)c1ccc(NS(C)(=O)=O)c(F)c1 (stereo not shown) [Example 251, N-[2-(3-tert-butyl-1-oxa-2,8-diaza-spiro[4.5]dec-2-en-8-yl)-6-trifluoromethyl-pyridin-3-ylmethyl]-2-(3-fluoro-4-methylsulfonamido-phenyl)-propionamide] | – |
| 0.9 nM | 0.9 nM | – | CC(C(=O)NCc1ccc(C(F)(F)F)nc1-c1ccc(Cl)c(Cl)c1)c1ccc(NS(C)(=O)=O)c(F)c1 (stereo not shown) [Example 250, N-[2-(3,4-dichloro-phenyl)-6-trifluoromethyl-pyridin-3-ylmethyl]-2-(3-fluoro-4-methylsulfonamido-phenyl)-propionamide] | inhibition at 1 µM [1]: 51%; inhibition at 10 µM [1]: 68% |
| – | 1.1 nM | 161 nM | CC(C(=O)NCc1ccc(C(F)(F)F)nc1OCC1CC1(C)C)c1ccc(NS(C)(=O)=O)c(F)c1 (stereo not shown) [Example 279, N-[2-(2,2-dimethyl-cyclopropylmethoxy)-6-trifluoromethyl-pyridin-3-ylmethyl]-2-(3-fluoro-4-methylsulfonamido-phenyl)-propionamide] | Ki [2, 6]: 1.7 nM |
| 2.5 nM | 1.3 nM | 612 nM | CCOC1CCN(c2nc(C(F)(F)F)ccc2CNC(=O)C(C)c2ccc(NS(C)(=O)=O)c(F)c2)CC1 (stereo not shown) [Example 228, N-(4-ethoxy-6′-trifluoromethyl-3,4,5,6-tetrahydro-2H-[1,2′]bipyridinyl-3′-ylmethyl)-2-(3-fluoro-4-methylsulfonamido-phenyl)-propionamide] | – |
| 12 nM | 3.5 nM | 148 nM | CCN(CC)c1nc(C(F)(F)F)ccc1CNC(=O)C(C)c1ccc(NS(C)(=O)=O)c(F)c1 (stereo not shown) [Example 15, N-((2-(diethylamino)-6-(trifluoromethyl)pyridin-3-yl)methyl)-2-(3-fluoro-4-(methylsulfonamido)phenyl)propanamide] | – |
| 1.7 nM | 1.6 nM | 24 nM | CCCCCCc1nc(C(F)(F)F)ccc1CNC(=O)C(C)c1ccc(NS(C)(=O)=O)c(F)c1 (stereo not shown) [Example 267, 2-(3-fluoro-4-methylsulfonamido-phenyl)-N-(2-hexyl-6-trifluoromethyl-pyridin-3-ylmethyl)-propionamide] | – |
| – | – | – | CC(C(=O)NCc1ccc(C(F)(F)F)nc1Br)c1ccc(NS(C)(=O)=O)c(F)c1 (stereo not shown) [Example 6, N-((2-bromo-6-(trifluoromethyl)pyridin-3-yl)methyl)-2-(3-fluoro-4-(methylsulfonamido)phenyl)propanamide] | IC50 ([1]; Table 2): 2610 nM; Ki [2, 7]: 95 nM; Ki [3, 8]: 169 nM |

| SMILES | Ki [2, 4] | Ki [3, 5] | IC50 ([1]; table 4) | also measured |
| --- | --- | --- | --- | --- |
| CC(C(=O)NCc1ccc(C(F)(F)F)nc1OC1CCC1)c1ccc(NS(C)(=O)=O)c(F)c1 (stereo not shown) [Example 156, N-(2-cyclobutoxy-6-trifluoromethyl-pyridin-3-ylmethyl)-2-(3-fluoro-4-methylsulfonamido-phenyl)-propionamide] | – | 1.4 nM | 69.8 nM | Ki [2, 6]: 1.7 nM |
